Paper PMC11311998, “AR71, Histamine H3 Receptor Ligand—In Vitro and In Vivo Evaluation (Anti-Inflammatory Activity, Metabolic Stability, Toxicity, and Analgesic Action)” (International Journal of Molecular Sciences, 2024)

Legend:
SH-SY5Y cells [1] = experiment: mitochondrial membrane potential (JC-10); type: cell-based, human; settings: 50 μM, 3 h
Procedure: Neurotoxin-like rotenone induces oxidative stress inside cells that might influence mitochondrial membrane potential (MMP). Maintaining unaffected MMP is essential for neuroprotection. In our study, we tested the effect of AR71 on MMP in the presence and absence of rotenone.
Next, the effect of AR71 (0.78 μM) when co-treated with rotenone was tested; 1 μM carbonyl cyanide m-chlorophenylhydrazone (CCCP) was used as a positive control.
The MMP was measured by a commercially available kit (Sigma Aldrich, MAK159, for live cells) that utilises a cationic, lipophilic dye JC-10. It allows for ratiometric analysis of mitochondrial membrane potential, where a shift from orange (λEX/λEM: 540 nm/590 nm) to green fluorescence (λEX/λEM: 490 nm/525 nm) is indicative of compromised mitochondria. For this assay, the SH-SY5Y cells (1 × 10^4 cells/well) were seeded in a black-sided clear bottom 96-well plate (Thermo Scientific Nunclon^TM Delta Surface no. 137101, Denmark) in a complete culture medium. First, to choose the optimal concentration of rotenone in this assay, a dose–response effect of rotenone (0.05, 0.5, 5, 50 μM) was studied. Next, the cells were pre-treated with AR71 (0.78 μM) for 1 h before rotenone stimulation (50 μM) for another 3 h. […] The positive control was carbonyl cyanide m-chlorophenylhydrazone (CCCP; 1 μM)—uncoupling agent on the proton gradient. After incubation, 50 μL/well of the JC-10 dye loading solution was added to each well with cells. The plate was incubated for 45 min in the incubator. Then, 50 μL/well of Assay Buffer B was added to each well, and the fluorescence was monitored immediately. The red/green fluorescence intensity ratio was used to calculate the results.

SH-SY5Y cells [2] = type: cell-based, human; settings: rotenone alone 6.25 μM, 24 h
Procedure: To test neuroprotective activity, SH-SY5Y cells were pre-treated for 1 h with various concentrations of AR71, after which rotenone (6.25 μM) was added and the cells were cultured for another 24 h. […] Co-treatment with AR71 protected cells from the toxic effect of rotenone, resulting in LDH leakage ranging from 10 to 22% only.
The protective effect of AR71 against rotenone-induced toxicity in SH-SY5Y cells was assessed by measuring LDH release. SH-SY5Y cells (6 × 10^3 cells/100 μL/well) were seeded in black 96-well plates Nunclon^TM Delta Surface no. 137101 (ThermoFischer Scientific, Waltham, MA, USA) and cultured overnight. The next day, the medium was removed and replaced with a fresh one with an increasing concentration of AR71 (0.0975–50 μM). After 1 h of compound pre-treatment, the neurotoxin rotenone (6.25 μM) was added, and the cells were cultured for another 24 h. For the negative and positive controls, cells were treated with 0.1% DMSO and 6.25 μM of rotenone alone, respectively. The cells treated with the compound alone were used to compare the effect with those co-treated with rotenone. After 24 h, the level of LDH leakage was measured by the CytoTox-ONE™ Homogeneous Membrane Integrity Assay (Promega, Madison, WI, USA) following the manufacturer’s protocol. Briefly, 100 μL of CytoTox-ONE™ reagent (Promega, Madison, WI, USA) was added to each well, and the cells were incubated for 10 min at room temperature protected from light. The fluorescence was measured using the multimode plate reader Tecan Spark (Tecan, Männedorf, Switzerland) with an excitation wavelength of 560 nm and an emission wavelength of 590 nm.

[3] = test system: rat models of neuropathic pain; set-up: method as in PMID 18164820; settings: surgically or virus-induced; cited from earlier work

| Compound | reduction of MMP compared with control cells (SH-SY5Y cells [1]) | LDH leakage vs control cells (SH-SY5Y cells [2]) | efficacy in rat models of neuropathic pain [3] |
| --- | --- | --- | --- |
| C=C(C)[C@H]1Cc2c(ccc3c2O[C@@H]2COc4cc(OC)c(OC)cc4[C@@H]2C3=O)O1 [rotenone, reference compound] | 67% | twice as much LDH leakage as control cells | – |
| CNC(=O)c1ccc(Oc2ccc3c(c2)CCN(C2CCC2)CC3)nc1 [GSK189254] | – | – | effective |
| CC(C)N1CCCN(C(=O)C2CCN(c3ccc(C(F)(F)F)nc3)CC2)CC1 [GSK334429] | – | – | effective |
